Assay results taken from US20090035270A1, “COMBINATION THERAPY USING ANTI-ANGIOGENIC AGENTS AND TNF alpha” (priority 2001, published 2009).

How the values were obtained:
[1] = test system: BN-175 syngeneic soft tissue sarcoma; assay: Isolated limb perfusion (ILP) of BN rats bearing BN-175 soft tissue sarcoma; assay type: in vivo; details: ILP 30 min; EMD121974 500 μg (plus 100 mg/kg i.p.); TNF 50 μg; 6 days after ILP
Experimental: FIG. 7. Decreased integrin ligation enhances TNF cytotoxicity in in vivo. BN rats bearing the BN-175 syngeneic soft tissue sarcoma were treated with EMD121974 (□), TNF (Δ) or EMD121974/TNF (▪) by ILP technique. (◯) sham-treated rats. Tumor growth was measured for 6 days after ILP. Results represent the mean tumor volume ±s.e.m. (n=6). Small fragments of the syngeneic soft tissue sarcoma BN-175 were implanted in the right hind limb of male BN rats, and treatment started when diameter reached 12-14 mm (Manusama et al., Oncol Rep. 6, 173-177. (1999)). The femoral artery and vein were canulated with silastic tubing and collaterals occluded with a tourniquet. The perfusion was performed for 30 min with 5 ml Heamaccel® (2.4 ml/min) in which the drugs were added as boluses (EMD121974, 500 μg, end concentration in perfusate 170 μM; TNF, 50 μg). The perfusate was oxygenated and the leg kept on 38-39° C. with a warm mattress. Rats perfused with EMD121974 also received systemic administration of the peptide 2 hours before and 3 hours after ILP (100 mg/kg i.p.). Tumor diameter was measured in two directions by caliper measurements and tumor volume (V) was calculated (V= 0.4)(A^2×B, where B represents the largest diameter and A the diameter perpendicular to B). 6 rats were treated per group. Local and systemic side effects were evaluated as described (Manusama et al., Oncol. Rep. 6, 173-177. (1999)). […]

BN175 tumor cells = assay: Sensitivity of BN175 tumor cells in vitro; assay type: cell-based, rat; details: unpublished observation
HUVEC [2] = assay type: cell-based
Experimental: To determine the effect of spheroid culture on cell viability, spheroids and fibronectin-adherent HUVEC were recovered between 6 and 72 hours after plating, serially diluted and further cultured for an additional 48 hours before relative cell number was determined. A shift-to-the left or a flattening of the dilution curve indicates decreased viability.
To test whether integrins modulate TNF-induced apoptosis, we cultured HUVEC on fibronectin (integrin-dependent adhesion) or as spheroids (integrin-independent adhesion) in the absence or presence of TNF (200 ng/ml) and of IFNγ (330 ng/ml), an enhancer of TNF cytotoxicity (Dealtry et al., Eur. J. Immunol. 17, 689-693 (1987)). […] To examine the effect of TNF±IFNγ on cell survival we determined the viability of untreated and treated cultures. […]
For survival, HUVEC spheroids plated at 1×10^6 cells/ml in 1% BSA-coated 24 mm wells, or adherent cells plated at 4×10^5 cells in 3 μg/ml fibronectin-coated 35 mm wells of non-tissue culture plates (Evergreen Scientific), were stimulated with TNFα (200 ng/ml=10^4 U/ml)±IFNγ (330 ng/ml=10^4 U/ml). […] Relative cell number was assessed 48 hours later by measuring MTT conversion during the last 4 hours of culture. […]

α5β1 = biological target: T1, α5β1 (Homo sapiens, UniProt P05556+P08648); assay: Cell detachment assay, HUVEC on fibronectin; assay type: cell-based; details: graded peptide concentrations; 2 hours
T1 construct: HUVEC adhere to immobilized fibronectin via αVβ3 and α5β1 integrins; endogenous in cells; host or cells: HUVEC (primary, passages 3 to 7)
Experimental: (§1) Maxisorp II ELISA plates were coated with 1 μg/well of fibrobnectin or 0.5% gelatin overnight at 4° C. in PBS. Coated wells were rinsed and blocked with 1% BSA for 2 hours at 37° C. and rinsed before use. 2×10^4 c/well in basal medium without FCS were added and briefly sedimented by centrifugation (40×g). Cells were let adhere for 2 hours at 37° C. before peptides were added at graded concentrations. After 2 hours, wells were rinsed with warm PBS, and attached cells were fixed in 2% paraformaldehyde, stained with 0.5% crystal violet (Sigma Chemie) and quantified by O.D. reading at 620 nm (Packard Spectra Count). Results are given as O.D. values and represent the mean of duplicate wells ±s.d. of specific adhesion (= adhesion on ECM protein minus adhesion on BSA).

integrin αVβ3 = biological target: T2, integrin αVβ3 (Homo sapiens, UniProt P05106+P06756); assay: Cell detachment assay, HUVEC on gelatin; assay type: cell-based; details: graded peptide concentrations; 2 hours
T2 construct: EMD121974 disrupted αVβ3-mediated HUVEC adhesion on gelatin; endogenous in cells; host or cells: HUVEC (primary, passages 3 to 7)
Experimental: as §1

HUVEC [3] = assay: Detection of apoptotic HUVEC in culture (YoPro-1 staining); assay type: cell-based, human; details: peptide 300 μM; TNF 200 ng/ml; IFNγ 330 ng/ml
Experimental: To test whether integrins modulate TNF-induced apoptosis, we cultured HUVEC on fibronectin (integrin-dependent adhesion) or as spheroids (integrin-independent adhesion) in the absence or presence of TNF (200 ng/ml) and of IFNγ (330 ng/ml), an enhancer of TNF cytotoxicity (Dealtry et al., Eur. J. Immunol. 17, 689-693 (1987)). […] In contrast, spheroids treated with TNF±IFNγ increased uptake of YoPro-1 (an increase suppressed by caspase inhibitors BOC, Z-VAD, IETD and DVED), DNA fragmentation, caspase-3 activation and cleavage of PARP (FIG. 2a, 2b and data not shown). To examine the effect of TNF±IFNγ on cell survival we determined the viability of untreated and treated cultures. […] Treatment with IFNγ alone was not cytotoxic (data not shown). HUVEC adhere to immobilized fibronectin via αVβ3 and α5β1 integrins (Rüegg et al., Nature Med. 4, 408-414 (1998)). To test for the individual contribution of these integrins to cell survival on fibronectin, we cultured HUVEC on plastic-immobilized mAbs (imAbs) directed against αVβ3, α1, α5 and α4 integrins.
For morphological evaluation, spheroids were embedded in Epon (Fluka Chemie) and thick sections were stained with 1% Methylene/Azur blue. For immunostaining, frozen spheroid sections were fixed in 4% (Fluka Chemis, Buchs, Switzerland) formaldehyde. After blocking with 1% BSA, sections were sequentially incubated for 1 hour with primary mAb (20 μg/ml) and a Cyan3-labeled GaM antiserum (West Grove, Pa., USA). For the TUNEL reaction, frozen spheroids sections were fixed in 4% paraformaledhyde and processed as described (Ruegg et al., I.e.). Spherouids were countsrstained with propidium iodide for total DNA content. […] The apoptosis index was determined by calculating the ratio between the green (TUNEL staining of fragmented DNA) and red (propidium iodide staining by total DNA) pixels. Number of analyzed spheroids per condition were: C, 31; T, 21; TI, 12. […] Cultures were viewed by inverted fluorescence microscopy (Leica DM IRB, Heerbrugg, Switzerland). […]

T1 sequence (P08648 42-894 limits assumed): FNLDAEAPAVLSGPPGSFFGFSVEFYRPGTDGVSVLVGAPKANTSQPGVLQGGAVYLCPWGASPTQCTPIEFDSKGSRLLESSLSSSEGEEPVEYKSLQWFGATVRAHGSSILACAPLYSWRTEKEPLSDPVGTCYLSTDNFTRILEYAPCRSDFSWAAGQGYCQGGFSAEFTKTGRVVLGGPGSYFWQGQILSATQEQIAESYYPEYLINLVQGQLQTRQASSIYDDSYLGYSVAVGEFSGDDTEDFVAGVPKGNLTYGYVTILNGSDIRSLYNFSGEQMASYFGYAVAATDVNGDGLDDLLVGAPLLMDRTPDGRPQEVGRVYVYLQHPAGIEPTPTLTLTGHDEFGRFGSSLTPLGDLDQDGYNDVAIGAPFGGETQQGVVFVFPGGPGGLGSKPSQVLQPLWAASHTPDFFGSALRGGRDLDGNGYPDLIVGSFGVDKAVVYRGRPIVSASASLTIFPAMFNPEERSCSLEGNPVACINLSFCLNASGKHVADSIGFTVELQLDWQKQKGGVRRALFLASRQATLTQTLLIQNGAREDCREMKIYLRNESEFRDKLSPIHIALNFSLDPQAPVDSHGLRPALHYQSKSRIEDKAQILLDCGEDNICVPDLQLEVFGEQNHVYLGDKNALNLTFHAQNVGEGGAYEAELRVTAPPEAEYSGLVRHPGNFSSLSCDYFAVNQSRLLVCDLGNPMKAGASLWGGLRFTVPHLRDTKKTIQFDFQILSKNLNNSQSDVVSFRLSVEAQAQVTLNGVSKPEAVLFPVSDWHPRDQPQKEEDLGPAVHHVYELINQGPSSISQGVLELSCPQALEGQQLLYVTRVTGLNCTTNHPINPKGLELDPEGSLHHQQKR
T1 sequence (P08648 895-1049 partner limits assumed): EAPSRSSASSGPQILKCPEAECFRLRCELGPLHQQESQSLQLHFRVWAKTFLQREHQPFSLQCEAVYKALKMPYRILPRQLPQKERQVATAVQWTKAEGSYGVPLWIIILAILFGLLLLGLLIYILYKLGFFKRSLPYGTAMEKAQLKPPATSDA
T1 sequence (P05556 21-798): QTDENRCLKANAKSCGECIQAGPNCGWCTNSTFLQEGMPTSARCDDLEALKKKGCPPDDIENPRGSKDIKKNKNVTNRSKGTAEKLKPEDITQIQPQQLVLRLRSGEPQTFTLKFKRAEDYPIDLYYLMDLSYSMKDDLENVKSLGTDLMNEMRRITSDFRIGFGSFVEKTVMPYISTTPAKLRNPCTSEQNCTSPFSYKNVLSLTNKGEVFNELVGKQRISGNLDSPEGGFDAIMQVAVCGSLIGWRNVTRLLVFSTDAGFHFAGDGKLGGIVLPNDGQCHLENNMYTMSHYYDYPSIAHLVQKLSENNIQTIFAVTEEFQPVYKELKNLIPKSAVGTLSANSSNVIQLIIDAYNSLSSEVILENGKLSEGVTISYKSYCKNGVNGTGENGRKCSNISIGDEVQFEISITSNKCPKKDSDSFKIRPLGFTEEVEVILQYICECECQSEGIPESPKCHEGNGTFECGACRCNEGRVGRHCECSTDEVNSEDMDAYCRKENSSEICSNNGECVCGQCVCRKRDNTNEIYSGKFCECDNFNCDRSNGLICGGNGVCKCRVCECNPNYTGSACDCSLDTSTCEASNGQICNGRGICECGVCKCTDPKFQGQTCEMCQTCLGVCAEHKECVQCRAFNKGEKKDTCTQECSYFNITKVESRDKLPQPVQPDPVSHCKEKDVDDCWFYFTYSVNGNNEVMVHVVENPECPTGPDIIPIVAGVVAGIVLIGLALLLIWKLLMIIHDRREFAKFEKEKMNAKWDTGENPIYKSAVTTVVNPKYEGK
T2 sequence (P06756 31-889 limits assumed): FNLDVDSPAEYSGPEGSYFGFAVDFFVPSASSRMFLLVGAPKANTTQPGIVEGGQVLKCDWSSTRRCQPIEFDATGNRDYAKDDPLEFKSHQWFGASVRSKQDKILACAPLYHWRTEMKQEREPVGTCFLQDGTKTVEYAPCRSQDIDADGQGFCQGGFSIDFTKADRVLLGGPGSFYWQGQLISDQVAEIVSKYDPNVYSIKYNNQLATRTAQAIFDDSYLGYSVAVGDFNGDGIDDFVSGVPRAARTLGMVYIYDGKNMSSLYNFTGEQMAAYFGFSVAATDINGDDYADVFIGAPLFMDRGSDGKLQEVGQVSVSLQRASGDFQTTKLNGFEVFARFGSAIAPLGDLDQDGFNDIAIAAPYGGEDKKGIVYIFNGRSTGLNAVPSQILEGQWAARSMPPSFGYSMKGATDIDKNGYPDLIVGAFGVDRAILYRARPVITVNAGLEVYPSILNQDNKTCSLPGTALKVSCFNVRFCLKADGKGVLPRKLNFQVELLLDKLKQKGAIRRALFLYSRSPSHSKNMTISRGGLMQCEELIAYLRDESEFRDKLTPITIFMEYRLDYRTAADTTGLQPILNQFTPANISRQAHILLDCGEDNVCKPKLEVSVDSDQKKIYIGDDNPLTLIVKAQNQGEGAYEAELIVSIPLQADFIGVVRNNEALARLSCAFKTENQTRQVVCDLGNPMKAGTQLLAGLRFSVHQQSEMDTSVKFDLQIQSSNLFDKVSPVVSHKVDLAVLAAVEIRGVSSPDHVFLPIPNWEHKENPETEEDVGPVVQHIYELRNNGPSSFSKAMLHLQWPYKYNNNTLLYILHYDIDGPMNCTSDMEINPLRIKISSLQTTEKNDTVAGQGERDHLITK
T2 sequence (P06756 891-1048 partner limits assumed): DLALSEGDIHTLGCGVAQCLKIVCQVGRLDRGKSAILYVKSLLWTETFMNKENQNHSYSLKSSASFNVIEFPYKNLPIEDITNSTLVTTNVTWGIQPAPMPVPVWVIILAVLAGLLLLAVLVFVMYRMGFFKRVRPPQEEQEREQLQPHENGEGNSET
T2 sequence (P05106 27-788): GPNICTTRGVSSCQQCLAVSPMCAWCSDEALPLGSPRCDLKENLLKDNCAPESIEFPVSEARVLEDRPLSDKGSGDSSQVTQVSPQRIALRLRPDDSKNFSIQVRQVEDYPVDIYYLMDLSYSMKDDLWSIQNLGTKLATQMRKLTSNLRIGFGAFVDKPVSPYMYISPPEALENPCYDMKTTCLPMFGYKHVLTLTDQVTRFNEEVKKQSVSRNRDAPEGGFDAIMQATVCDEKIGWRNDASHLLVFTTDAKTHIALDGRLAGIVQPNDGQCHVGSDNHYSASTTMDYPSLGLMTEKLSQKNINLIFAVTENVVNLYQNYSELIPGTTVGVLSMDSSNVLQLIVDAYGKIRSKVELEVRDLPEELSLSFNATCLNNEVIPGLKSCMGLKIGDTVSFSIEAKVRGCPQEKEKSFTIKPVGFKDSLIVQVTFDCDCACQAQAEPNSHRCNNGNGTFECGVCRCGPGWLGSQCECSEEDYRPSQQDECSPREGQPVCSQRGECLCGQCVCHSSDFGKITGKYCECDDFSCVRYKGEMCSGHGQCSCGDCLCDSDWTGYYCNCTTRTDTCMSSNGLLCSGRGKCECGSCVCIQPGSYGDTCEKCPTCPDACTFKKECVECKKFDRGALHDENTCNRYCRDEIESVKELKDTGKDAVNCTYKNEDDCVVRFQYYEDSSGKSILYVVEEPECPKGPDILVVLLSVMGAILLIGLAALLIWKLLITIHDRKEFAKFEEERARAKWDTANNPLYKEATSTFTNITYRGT

CC(C)[C@H]1C(=O)N[C@@H](CCCN=C(N)N)C(=O)NCC(=O)N[C@@H](CC(=O)O)C(=O)N[C@H](Cc2ccccc2)C(=O)N1C [EMD121974, cyclo-(Arg-Gly-Asp-DPhe-NMeVal)]
tumor growth [1]: no impact on tumor growth
sensitivity of BN175 tumor cells to αVβ3 selective inhibitors (BN175 tumor cells): low sensitivity
cell viability / survival of fibronectin-adherent HUVEC, agent alone (HUVEC [2]; fibronectin-adherent, TNF 200 ng/ml ± IFNγ 330 ng/ml, EMD peptide 300 μM): neither TNF/IFNγ nor EMD121974 alone affected survival
survival of HUVEC on fibronectin, combined exposure to TNF/IFNγ and peptide (HUVEC [2]; peptide 300 μM, TNF 200 ng/ml, IFNγ 330 ng/ml): reduced survival
α5β1 component of the α5β1/αVβ3-mediated adhesion to fibronectin (α5β1): does not affect
αVβ3-mediated HUVEC adhesion on gelatin (integrin αVβ3): disrupted
apoptosis and detachment of HUVEC on fibronectin, combined exposure to TNF/IFNγ and peptide (HUVEC [3]): increased apoptosis and detachment
